US20100298141A1, “SUBSTITUTED PYRIDINE N-OXIDE HERBICIDES” (E. I. DU PONT DE NEMOURS AND COMPANY, priority 2007, published 2010)

What was measured:
wild oat = experiment: Test C pre-/postemergence test; assay type: in vivo, Avena fatua; settings: for Plant response rating, Oat, Wild: 31 g ai/ha, scale 0 to 100 (0 no effect, 100 complete control)
In short: (§1)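 Test chemicals were formulated with surfactant in a non-phytotoxic solvent and sprayed both on freshly planted seeds (preemergence) and on 1- to 4-leaf plants of 2–18 cm (postemergence). Flooded-paddy pots received compound directly into 3 cm of standing water, maintained for the test.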

velvetleaf = experiment: Test C pre-/postemergence test; assay type: in vivo, Abutilon theophrasti; settings: for Plant response rating, Velvetleaf: 31 g ai/ha, scale 0 to 100 (0 no effect, 100 complete control)
In short: as §1

duck salad = experiment: Test C flooded paddy test; assay type: in vivo, Heteranthera limosa; settings: Flood
In short: (§2)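 Flooded 3 cm over soil; compound into paddy water; depth kept constant. Greenhouse 13–15 d.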

wheat = experiment: Test C pre-/postemergence test; assay type: in vivo, Triticum aestivum; settings: for Plant response rating, Wheat: 31 g ai/ha, scale 0 to 100 (0 no effect, 100 complete control)
In short: as §1

catchweed bedstraw = experiment: Test C pre-/postemergence test; assay type: in vivo, Galium aparine; settings: for Plant response rating, Galium: 31 g ai/ha, scale 0 to 100 (0 no effect, 100 complete control)
In short: as §1

bermudagrass = experiment: Test C pre-/postemergence test; assay type: in vivo, Cynodon dactylon; settings: for Plant response rating, Bermudagrass: 31 g ai/ha
In short: as §1

barnyardgrass = experiment: Test C flooded paddy test; assay type: in vivo, Echinochloa crus-galli; settings: Flood
In short: as §2

blackgrass = experiment: Test C pre-/postemergence test; assay type: in vivo, Alopecurus myosuroides; settings: for Plant response rating, Blackgrass: 31 g ai/ha, scale 0 to 100 (0 no effect, 100 complete control)
In short: as §1

redroot pigweed = experiment: Test A pre-/postemergence greenhouse test; assay type: in vivo, Amaranthus retroflexus; settings: for Plant response rating, Pigweed: 0 to 100 scale where 0 is no effect and 100 is complete control; for Pigweed plant response rating: 0 to 100 scale
In short: (§3)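 Pots of loam–sand soil sown with the test species are sprayed preemergence on the soil surface; emerged seedlings (1–2 leaves, 2–10 cm) are sprayed postemergence at the same time. The vehicle is a non-phytotoxic solvent mixture with surfactant. Injury is scored visually after ~10 d in greenhouse.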

corn = experiment: Test A pre-/postemergence greenhouse test; assay type: in vivo, Zea mays; settings: for Plant response rating, Corn: 0 to 100 scale where 0 is no effect and 100 is complete control; for Corn plant response rating: 0 to 100 scale
In short: as §3

kochia = experiment: Test C pre-/postemergence test; assay type: in vivo, Kochia scoparia; settings: for Plant response rating, Kochia: 31 g ai/ha, scale 0 to 100 (0 no effect, 100 complete control)
In short: as §1

[1] = system: common (oilseed) sunflower; experiment: Test C pre-/postemergence test; assay type: in vivo, Helianthus annuus; settings: for Plant response rating, Sunflower: 31 g ai/ha, scale 0 to 100 (0 no effect, 100 complete control)
In short: as §1

eastern black nightshade = experiment: Test C pre-/postemergence test; assay type: in vivo, Solanum ptycanthum; settings: for Plant response rating, Nightshade: 31 g ai/ha, scale 0 to 100 (0 no effect, 100 complete control)
In short: as §1

pigweed = experiment: Test C pre-/postemergence test; assay type: in vivo, Amaranthus retroflexus; settings: for Plant response rating, Pigweed: 31 g ai/ha, scale 0 to 100 (0 no effect, 100 complete control)
In short: as §1

Surinam grass = experiment: Test C pre-/postemergence test; assay type: in vivo, Brachiaria decumbens; settings: for Plant response rating, Surinam Grass: 31 g ai/ha, scale 0 to 100 (0 no effect, 100 complete control)
In short: as §1

crabgrass = experiment: Test C pre-/postemergence test; assay type: in vivo, Digitaria sanguinalis; settings: for Plant response rating, Crabgrass, Large: 31 g ai/ha, scale 0 to 100 (0 no effect, 100 complete control)
In short: as §1

rice = experiment: Test C flooded paddy test; assay type: in vivo, Oryza sativa; settings: Flood
In short: as §2

[2] = 62 g ai/ha, Preemergence, scale 0 to 100
[3] = 125 g ai/ha, preemergence, scale 0 (no effect) to 100 (complete control)
[4] = preemergence, 250 g ai/ha, scale 0 (no effect) to 100 (complete control)
[5] = 62 g ai/ha, scale 0 to 100 (0 no effect, 100 complete control)
[6] = 250 g ai/ha, scale 0 to 100, 0 no effect, 100 complete control, 13 to 15 days
[7] = 62 g ai/ha, Preemergence, scale 0 to 100 (0 no effect, 100 complete control)
[8] = Preemergence, scale 0 to 100 (0 no effect, 100 complete control)
[9] = Postemergence, 500 g ai/ha, 0 is no effect, 100 is complete control
[10] = Preemergence, 125 g ai/ha, 0 no effect, 100 complete control
[11] = Preemergence, 500 g ai/ha, 0 no effect, 100 complete control
[12] = 31 g ai/ha, scale 0 to 100 (0 no effect, 100 complete control)
[13] = 62 g ai/ha, scale 0 to 100, 0 no effect, 100 complete control, 13 to 15 days
[14] = 125 g ai/ha, scale 0 to 100, 0 no effect, 100 complete control, 13 to 15 days
[15] = 250 g ai/ha, scale 0 to 100 (0 no effect, 100 complete control)
[16] = preemergence, 125 g ai/ha, scale 0 (no effect) to 100 (complete control)
[17] = Postemergence, 125 g ai/ha, 0 is no effect, 100 is complete control

Cc1cc[n+]([O-])c(S(=O)(=O)Cc2c(C(F)(F)C(F)(F)F)nn(C)c2OCC(F)(F)F)c1 [Compound 99]
90: Plant response rating, Nightshade (eastern black nightshade; Preemergence)
45: Plant response rating, Rice (rice; [6])
0: Plant response rating, Velvetleaf (velvetleaf; Preemergence) | Plant response rating, Ducksalad (duck salad; [5]) | Plant response rating, Barnyardgrass (barnyardgrass; [5]) | Corn plant response rating (corn; [10]) | Plant response rating, Surinam Grass (Surinam grass; Preemergence) | Plant response rating, Rice (rice; [5])
40: Plant response rating, Corn (corn; Postemergence, 125 g ai/ha) | Sunflower plant response rating [1, 4]
85: Plant response rating, Bermudagrass (bermudagrass; [8])
20: Plant response rating, Barnyardgrass (barnyardgrass; [6])
100: Velvetleaf plant response rating (velvetleaf; [3]) | Velvetleaf plant response rating (velvetleaf; [4]) | Galium plant response rating (catchweed bedstraw; [2]) | Galium plant response rating (catchweed bedstraw; [3]) | Plant response rating, Galium (catchweed bedstraw; Preemergence) | Galium plant response rating (catchweed bedstraw; [4]) | Bermudagrass plant response rating (bermudagrass; [7]) | Bermudagrass plant response rating (bermudagrass; [3]) | Bermudagrass plant response rating (bermudagrass; [4]) | Blackgrass plant response rating (blackgrass; [2]) | Blackgrass plant response rating (blackgrass; [3]) | Blackgrass plant response rating (blackgrass; [4]) | Pigweed plant response rating (redroot pigweed; [10]) | Pigweed plant response rating (redroot pigweed; [11]) | Kochia plant response rating (kochia; [2]) | Kochia plant response rating (kochia; [3]) | Plant response rating, Kochia (kochia; Preemergence) | Kochia plant response rating (kochia; [4]) | Nightshade plant response rating (eastern black nightshade; [3]) | Nightshade plant response rating (eastern black nightshade; [4]) | Pigweed plant response rating (pigweed; [2]) | Pigweed plant response rating (pigweed; [3]) | Plant response rating, Pigweed (pigweed; Preemergence) | Pigweed plant response rating (pigweed; [4]) | Crabgrass, Large plant response rating (crabgrass; [2]) | Crabgrass, Large plant response rating (crabgrass; [3]) | Crabgrass, Large plant response rating (crabgrass; [4])
25: Plant response rating, Wheat (wheat; Preemergence)
60: Pigweed plant response rating (redroot pigweed; [9]) | Corn plant response rating (corn; [9])
80: Oat, Wild plant response rating (wild oat; [2]) | Velvetleaf plant response rating (velvetleaf; [2]) | Plant response rating, Blackgrass (blackgrass; Preemergence) | Plant response rating, Crabgrass, Large (crabgrass; Preemergence)
55: Wheat plant response rating (wheat; [2]) | Wheat plant response rating (wheat; [3])
98: Nightshade plant response rating (eastern black nightshade; [2])
65: Plant response rating, Ducksalad (duck salad; [6])
30: Plant response rating, Oat, Wild (wild oat; Preemergence) | Corn plant response rating (corn; [11]) | Sunflower plant response rating [1, 2] | Sunflower plant response rating [1, 3] | Plant response rating, Sunflower ([1]; Preemergence)
95: Oat, Wild plant response rating (wild oat; [3]) | Oat, Wild plant response rating (wild oat; [4]) | Wheat plant response rating (wheat; [4]) | Surinam Grass plant response rating (Surinam grass; [3]) | Surinam Grass plant response rating (Surinam grass; [4])
75: Surinam Grass plant response rating (Surinam grass; [2])
10: Plant response rating, Pigweed (redroot pigweed; Postemergence, 125 g ai/ha)

Cn1nc(C(F)(F)F)c(CS(=O)(=O)c2ccc(Cl)c[n+]2[O-])c1Cl [Compound 18]
80: Plant response rating, Ducksalad (duck salad; [14]) | Plant response rating, Ducksalad (duck salad; [15]) | Plant response rating, Crabgrass, Large (crabgrass; Preemergence) | Plant response rating, Rice (rice; [14]) | Plant response rating, Rice (rice; [15])
98: Plant response rating (0 to 100), Blackgrass (blackgrass; Preemergence, 250 g ai/ha) | Blackgrass plant response rating (blackgrass; [16])
85: Plant response rating, Barnyardgrass (barnyardgrass; [15])
60: Pigweed plant response rating (redroot pigweed; [9]) | Nightshade plant response rating (eastern black nightshade; [2]) | Plant response rating, Nightshade (eastern black nightshade; Preemergence)
50: Corn plant response rating (corn; [9])
40: Plant response rating, Rice (rice; [13])
0: Oat, Wild plant response rating (wild oat; [2]) | Plant response rating, Oat, Wild (wild oat; Preemergence) | Velvetleaf plant response rating (velvetleaf; [2]) | Plant response rating, Velvetleaf (velvetleaf; Preemergence) | Plant response rating, Ducksalad (duck salad; [12]) | Plant response rating, Ducksalad (duck salad; [13]) | Wheat plant response rating (wheat; [2]) | Plant response rating, Wheat (wheat; Preemergence) | Galium plant response rating (catchweed bedstraw; [2]) | Plant response rating, Galium (catchweed bedstraw; Preemergence) | Plant response rating, Barnyardgrass (barnyardgrass; [12]) | Blackgrass plant response rating (blackgrass; [2]) | Plant response rating, Blackgrass (blackgrass; Preemergence) | Pigweed plant response rating (redroot pigweed; [17]) | Corn plant response rating (corn; [17]) | Corn plant response rating (corn; [10]) | Plant response rating, Corn (corn; Preemergence, 500 g ai/ha) | Kochia plant response rating (kochia; [2]) | Plant response rating, Kochia (kochia; Preemergence) | Sunflower plant response rating [1, 2] | Plant response rating, Sunflower ([1]; Preemergence) | Surinam Grass plant response rating (Surinam grass; [2]) | Plant response rating, Surinam Grass (Surinam grass; Preemergence)
75: Plant response rating, Barnyardgrass (barnyardgrass; [14])
90: Plant response rating (0 to 100), Galium (catchweed bedstraw; Preemergence, 250 g ai/ha) | Plant response rating, Bermudagrass (bermudagrass; [8]) | Pigweed plant response rating (redroot pigweed; [10])
30: Plant response rating, Barnyardgrass (barnyardgrass; [13]) | Plant response rating, Rice (rice; [12])
100: Bermudagrass plant response rating (bermudagrass; [7]) | Plant response rating (0 to 100), Bermudagrass (bermudagrass; Preemergence, 250 g ai/ha) | Bermudagrass plant response rating (bermudagrass; [16]) | Plant response rating, Pigweed (redroot pigweed; Preemergence, 500 g ai/ha) | Pigweed plant response rating (pigweed; [2]) | Plant response rating, Pigweed (pigweed; Preemergence) | Crabgrass, Large plant response rating (crabgrass; [2]) | Plant response rating (0 to 100), Crabgrass, Large (crabgrass; Preemergence, 250 g ai/ha)
